Entries after “also recorded” stand apart in the source; their conditions may differ.
Tested on: non-phosphorylated AKT
Assay: Non-phosphorylated AKT western blot in SW1990 cells
Format: cell-based, human
Settings: data not shown
Procedure: Structure 1 decreased both phosphorylated AKT and phosphorylated ERK. Structure 1 had no effect on AKT or ERK (data not shown).
A method used to measure ERK and AKT is based on Welsch et al, Cell 168: 878-889 February 2017. SW1990 cells, growth driven by a G12D kRAS mutation and derived from human, pancreatic cancer cells, are plated in a 6-well plate at 1.5×10^6 cells per plate and grown overnight at 37° C. Media is replaced with serum-free media and the plate incubated an additional 24 hours. Media is replaced with media with or without compound and incubated for an additional 24 hours. EGF is added at a concentration of 10 ng/mL. After 15 minutes, cells are washed with ice cold PBS and lysed with RIPA buffer.
The lysate is processed by electrophoresis using a Mini-PROTEAN® gel mounted in a Mini-PROTEAN® Tetra Cell (cassette). Both the gel and the holding assembly (cassette) are purchased from BIORAD. The gel in the assembly is placed, electrode up, in the buffer tanks. The Tris/glycine/SDS buffer is added to both the inner buffer chamber (200 mL) and the outer buffer chamber (800 mL). […]
The membrane is placed into TTBS buffer containing SuperBlock T20 (Thermo Scientific) and incubated for 1 hour at room temperature. […] The anti pERK detected both pERK 1 and 2 (T202/Y204). […]

For `Cc1nc2c(-c3ccccc3)c(C)nn2c(NCc2ccccn2)c1Cc1ccccc1` [Structure 1], the “Effect on non-phosphorylated AKT” value was “no effect; also recorded: without affecting”.

Reference: US11390626B2, “Pyrazolopyrimidine modulators of RAS GTPase” (Tosk, Inc., priority 2019, dated 2022)
